# Measurements reported in patent US12391660B2, “Heteroaromatic acetamide derivative, and preparation and use thereof” (Hangzhou Westan Pharmaceutical Technology Co., Ltd, priority 2019, dated 2025).
# Experiments:
# human TRPA1 [1] = biological target: T1, human TRPA1 (Homo sapiens (Human), UniProt O75762); experiment: FLIPR assay of inhibitory activity on human TRPA1 (calcium ion flux fluorescence); type: cell-based; conditions: HEK293 cells stably expressing human TRPA1
# Description: 1. FLIPR Assay of Inhibitory Activity on Human TRPA1
# A calcium ion flux fluorescence method (FLIPR assay) was adopted to measure the inhibitory activity of compounds on human TRPA1 channel. The literature reports of Lee and Chen et al. may be referred to for the method [Lee et al. Br J Pharmacol 2008, 153 (8): 1739-1749] [Chen et al. Pain 2011, 152(5):1165-72].
# A HEK293 recombinant cell strain stably expressing human TRPA1 (Creative Biogene, NY) was cultured in DMEM (Thermo Fisher Scientific, Shanghai) medium (containing 10% calf serum, 5 μg/ml Blasticidin and 400 ug/ml G418). The incubator was under a condition of 37° C. and air humidity with 5% CO2.
# TRPA1 cells were seeded in a 96-well analysis plate at a density of 75,000 cells per well (100 ul/well), and cultured overnight in an incubator at 37° C. and 5% CO2. On the second day, incubation was continued overnight under the same condition to induce the expression of TRPA1 after the culture medium in each well was poured out and a fresh supplement with the same culture medium containing 0.1 μg/ml Tetracycline was added. The further next day, the culture medium was pour out, a DMEM culture solution (also containing 2.5 mM Probenicid) containing 5 μM Fluo-4 AM (Molecular Probes) was added to each well, and incubation was conducted at 37° C. for 1 hour.
# The compound was dissolved in 100% DMSO to prepare a 30 mM stock solution which was stored at −20° C. On the day of use, the compound stock solution was thawed at room temperature. Each compound was subjected to 1:5 serial dilution using DMSO medium at a starting concentration of 30 μM with 9 concentration points on a 96-well plate. Each compound was diluted in duplicate for testing. Ruthenium Red was used as the positive control compound and the same dilution was carried out at a starting concentration of 3 μM.
# The cell analysis plate was placed in an FLIPR instrument […], and the compound in the compound plate was added to the corresponding hole on the cell analysis plate (First addition) via an automatic program, and the calcium ion fluorescence signal was recorded to determine whether the compound had agonistic activity. After 10 minutes, CaCl2 (Second addition) was added a final concentration of 3 mM to each well to stimulate intracellular calcium flux signals. Ca^++-dependent fluorescence signal was monitored continuously at 538 nm wavelength to analyze the inhibitory activity of the compounds.
# The data was collected and analyzed using a FLIPR program. The fluorescence peak value was used to evaluate the inhibitory (or agonistic) activity of the compounds at each concentration. EXCEL and PRISM programs were used to calculate the IC50 value of the compounds.
# human TRPA1 [2] = biological target: T1, human TRPA1; experiment: Inhibitory activity on human TRPA1 by conventional patch clamp assay; type: cell-based; conditions: HEK293 human TRPA1, 100 μM cinnamaldehyde
# From the text: 2. Inhibitory Activity on Human TRPA1 by Conventional Patch Clamp Assay
# In order to compare the influences of different measuring methods on the inhibitory activity of compounds, a conventional patch clamp method was used to further measure the inhibitory activity of compounds 1, 11, 31, 50, and 78 on TRPA1. The principle and procedures of the conventional patch clamp assay could be found in the literature report of Chen et al [Chen et al. Pain 2011, 152(5):1165-72].
# Evaluation of TRPA1 inhibitory activity of compounds was conducted using the HEK293 recombinant cell strain (Creative Biogene, NY) stably expressing human TRPA1. Cells were cultured in a DMEM/F12 (3:1, Thermo Fisher Scientific) medium (containing 5% calf serum, 2 mM glutamine and 20 mM HEPES) in an incubator at 37° C. and air humidity containing 5% CO2.
# During the experiment, the adherent cells were placed in a recording room under the inverted microscope. All experiments were performed at room temperature. Each cell itself was used as a control thereof.
# Test compounds at a final concentration were all prepared on the testing day and then dissolved in the extracellular fluid. The extracellular fluid was (mM): NaCl, 137; KCl, 4; CaCl2, 1.8; MgCl2, 1; HEPES, 10; glucose 10; pH 7.4 (NaOH titration). All the solutions of the test compounds and control compounds contained 0.3% DMSO.
# The compounds were all perfused with a perfusion system by virtue of their own gravity. At least two cells were tested for each concentration of the compound. After the current became stable, the variation in magnitude of the current before and after the compound was used to calculate the blocking effect of the compound. 100 μM cinnamaldehyde was used as the positive control.
# The cells were transferred to the perfusion tank and perfused with extracellular fluid. The intracellular fluid was: 130 mM K-aspartate; 5 mM MgCl2; 5 mM EGTA; 10 mM
# HEPES; pH 7.2 (KOH titration). The intracellular fluid was stored in a small amount in a −80 degree refrigerator in batches, and thawed on the day of the experiment. The electrode was pulled with PC-10 (Narishige, Japan). Whole-cell patch clamp recording was adopted and noise was filtered at one-fifth of the sampling frequency.
# The cells were clamped at 20 mV, and then depolarized to 80 mV with a square wave of 500 milliseconds to obtain the TRPA1 current (see FIG. 1).
# This procedure was repeated every 3 seconds. Cells were patched in a normal extracellular fluid, current A was obtained via voltage procedure testing, and then perfusion was conducted with an extracellular fluid added with 100 μM cinnamaldehyde to activate TRPA1 current to obtain current B. After the current stabilized, elution was conducted with normal extracellular fluid and perfusion was conducted with an extracellular fluid added with 100 μM cinnamaldehyde and a compound at various concentrations to obtain current C. Finally, blocking rate of the compound was obtained according to […], see FIG. 2.
# Data collection and analysis was conducted using pCLAMP 10 (Molecular Devices, Union City, CA). Current stabilization meant that the variation in the current with time was within a limited range. The magnitude of the current after stabilization was used to reflect the effect of the compound in this process.
# mouse asthma model = conditions: cited from earlier work
# mouse model of COPD = conditions: pretreatment of mice, cigarette smoke; cited from earlier work
# guinea pigs = conditions: cough induced by acrolein, crotonaldehyde, cinnamaldehyde; cited from earlier work
# asthmatic rats = experiment: Ovalbumin-induced asthma rat model (HE staining, lung tissue inflammation area, airway inflammation score); type: in vivo, SD rats; conditions: compared with the model group
# From the text: 4. Effects of Compounds on Ovalbumin-Induced Asthma in Mouse and Rat Models
# SPF-grade SD male rats (purchased from Zhejiang Academy of Medical Sciences, license number SCXK (Zhejiang) 2019-0002) with a body weight of 160-180 g; and SPF-grade female BABL/c mice (purchased from Zhejiang Weitong Lihua Experimental Animals Technology Co., Ltd., license number SCXK (Zhejiang) 2019-0001) with a body weight of 16-18 g were used. The above animals were raised by the Experimental Animal Center of Zhejiang Academy of Traditional Chinese Medicine.
# Formulation of compound solution: compound was vortexed in a solvent system, dissolved by ultrasound, and prepared into a solution at a corresponding concentration, which was prepared just before use (the solvent system was composed of 5% Solutol HS 15, 5% DMSO and 90% physiological saline).
# BABL/c mice or SD rats were randomly divided into: normal control group, model control group, dexamethasone group (0.72 mg/kg), and the respective test compound groups (one group for each dose), 10 mice in each group; 6 rats in each group.
# Sensitization of rats: On Day 1 and Day 8, the model control group and the respective drug administration groups were intraperitoneally injected with 1 ml of 10% OVA sensitizing solution, and the normal group was intraperitoneally injected with an equal volume of normal saline.
# Rat: from Day 15, the dexamethasone group and the respective test compound groups were intraperitoneally injected, 20 minutes before challenge, with the corresponding drugs with an injection volume of 0.3 ml/100 g; the model control group was intraperitoneally injected, 20 minutes before challenge, with an equal volume of solvent system; and the normal control group was not treated. Administration was conducted for 7 consecutive days. […]
# The rat was anesthetized with 10% urethane at 1.3 ml/100 g volume, and the left lung tissue was taken and fixed in 4% neutral formaldehyde, paraffin-embedded according to routine operation, sectioned for HE staining. […] NIS-Elements D 3.2 software was used to manually integrate and measure the total area of lung tissue sections and the inflammation area under all fields of view, the total areas under each field of view were accumulated, and the percentage of the cumulative area of inflammation in the total area was calculated, wherein the percentage of inflammation area=cumulative area of inflammation/total area×100%.
# All data were expressed as mean±standard deviation (x±s), and the data were processed by SPSS 20.0 statistical software. […]
# T1 sequence (O75762 whole entry): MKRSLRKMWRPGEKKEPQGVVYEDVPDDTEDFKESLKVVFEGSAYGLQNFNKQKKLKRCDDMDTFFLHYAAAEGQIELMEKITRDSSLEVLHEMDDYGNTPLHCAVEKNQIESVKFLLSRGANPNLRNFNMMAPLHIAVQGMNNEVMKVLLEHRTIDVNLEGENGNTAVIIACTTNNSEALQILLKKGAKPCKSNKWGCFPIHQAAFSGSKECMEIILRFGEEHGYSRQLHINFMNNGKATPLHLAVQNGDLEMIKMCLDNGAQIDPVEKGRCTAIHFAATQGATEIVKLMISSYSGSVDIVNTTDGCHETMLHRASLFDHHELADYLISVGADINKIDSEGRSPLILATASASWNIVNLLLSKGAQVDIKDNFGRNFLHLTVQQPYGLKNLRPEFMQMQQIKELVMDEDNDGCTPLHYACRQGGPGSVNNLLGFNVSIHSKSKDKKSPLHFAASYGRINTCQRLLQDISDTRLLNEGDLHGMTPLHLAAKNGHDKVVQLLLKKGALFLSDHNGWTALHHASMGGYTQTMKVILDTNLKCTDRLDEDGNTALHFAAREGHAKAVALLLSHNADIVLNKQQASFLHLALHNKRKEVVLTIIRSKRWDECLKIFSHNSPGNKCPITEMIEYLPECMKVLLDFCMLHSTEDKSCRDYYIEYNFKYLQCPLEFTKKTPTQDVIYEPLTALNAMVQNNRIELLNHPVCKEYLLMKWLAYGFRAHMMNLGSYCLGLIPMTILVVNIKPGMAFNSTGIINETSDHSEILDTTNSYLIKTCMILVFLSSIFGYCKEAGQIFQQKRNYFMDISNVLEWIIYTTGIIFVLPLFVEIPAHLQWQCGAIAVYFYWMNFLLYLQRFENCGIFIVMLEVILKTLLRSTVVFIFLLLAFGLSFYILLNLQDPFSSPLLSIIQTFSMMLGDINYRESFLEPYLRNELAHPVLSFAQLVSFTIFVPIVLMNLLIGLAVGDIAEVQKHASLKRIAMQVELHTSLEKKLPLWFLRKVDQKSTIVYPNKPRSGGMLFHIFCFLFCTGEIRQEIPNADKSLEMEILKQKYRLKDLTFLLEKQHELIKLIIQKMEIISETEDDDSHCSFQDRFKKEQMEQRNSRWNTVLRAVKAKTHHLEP
IC50 (human TRPA1 [1]) [nM],IC50 (human TRPA1 [2]) [nM],Structure (SMILES),also measured
19,35,"N#Cc1ccc(NC2(C(=O)N3CCN(c4cccc(C(F)(F)F)n4)CC3)CCCC2)cc1 [Compound 11, 4-((1-(4-(6-(trifluoromethyl)pyridin-2-yl)piperazine-1-carbonyl)cyclopentyl)amino)benz onitrile]",
28,65,"N#Cc1ccc(OC2(C(=O)N3CCN(c4nccc(C(F)(F)F)n4)CC3)CCCC2)cc1 [Compound 50, 4-((1-(4-(4-(trifluoromethyl)pyrimidin-2-yl)piperazine-1-carbonyl)cyclopentyl)oxy)benz onitrile]",
53,83,"CC(C)(C)C1CCN(C(=O)C2Cc3cc(C#N)ccc3N2)CC1 (centres unmarked) [Compound 78, 2-(4-(tert-butyl)piperidine-1-carbonyl)-5-cyanoindoline]",
,,Cn1c(=O)c2c(CC(=O)Nc3nc(-c4ccc(F)c(C(F)(F)F)c4F)cs3)csc2n(C)c1=O [GRC17536],acidophilic leukocytes (mouse asthma model): reduce; mucus secretion and airway hyperreactivity (mouse asthma model): inhibit
,,CC(C)c1ccc(NC(=O)Cn2cnc3c2c(=O)n(C)c(=O)n3C)cc1 [HC-030031],plasma protein extravasation induced by CS (mouse model of COPD): protective effect; cough response (guinea pigs): significantly attenuate
,,"C[C@@H]1C[C@H]2[C@@H]3CCC4=CC(=O)C=C[C@]4(C)[C@@]3(F)[C@@H](O)C[C@]2(C)[C@@]1(O)C(=O)CO [dexamethasone, reference compound]",lung tissue inflammation and inflammatory cell infiltration around the airway (HE x40) (asthmatic rats): significant improvement
